The source of these data is patent publication US20220372013A2, “PIPERIDINE-2,6-DIONE DERIVATIVES AND CROHN'S DISEASE TREATING” (Tianjin Hemay Pharmaceutical Sci-Tech Co., Ltd, priority 2016, published 2022).

The subject of data set [1] is DNBS-Induced Inflammatory Bowel Disease Models in Rats. Put plainly: Biological Example 2: DNBS-induced inflammatory bowel disease models in rats. The class given is in vivo, Wistar rats. The following applies: for Adhesion Degree / Colon Length / Colon Weight / Ulcer Area: sixth day, Mean ± SD. On the procedure: 110 male Wistar rats were fasted for 40 hours. A 5% glucose injection (10 mL/Kg) was administered subcutaneously during fasting. 48 rats with normal conditions and moderate body weight were selected from the fasting rats. The animals were randomly divided into […] according to the body weight: normal control group, model control group, sulfasalazine group (300 mg/Kg), dexamethasone group (0.1 mg/Kg), the compound in Example 26 group (30 mg/kg) and the compound in Example 27 group (30 mg/kg), with 8 rats in each group. The animals were anesthetized with isoflurane. A specially made gavage device (made by a rat gavage device having the diameter of 2 mm, which was nested on a mouse gavage device having the diameter of 1 mm) was slowly inserted into the enteric cavity at 8 cm from the anus. The model control group, the compound in Example 26 group and the compound in Example 27 group were administered with 0.5 mL of 50 mg/mL DNBS in 30% ethanol solution. The normal control group was administered with 0.5 mL of 30% ethanol solution. The animals were inverted in anesthesia for 15 minutes after the gavage device was removed. The day when the model was prepared was the first day of the experiment. After 4 hours of DNBS induction, the corresponding drug or the corresponding volume of 1% CMC-Na was administered once per day. On the sixth day of the experiment, the animals were euthanized to observe the results of each index so as to score the colon adhesion degree, measure the length of colon and ulcer area, weigh colon and calculate the colon weight to length ratio.
The compound in Example 26 and Example 27, sulfasalazine and dexamethasone: Preparation Method: Suspended with 1% CMC-Na, and prepared when it was needed.
Levene's Test for homogeneity of data was performed with Spss. Where the data were homogeneous (P>0.05), one-way ANOVA LSD test was performed. Where the analysis of variance was significant (P≤0.05), Dunnett's multiple comparison (parameter method) was performed. Where the results of Levene's Test were significant (P≤0.05), Kruskal-Wallis nonparametric test was performed. Where the results of Kruskal-Wallis nonparametric test were significant (P≤0.05), Mann-Whitney U test was performed for pairwise comparison.

Data set [2] concerns mice. Put plainly: Biological Example 5: acute toxicity experiment of single oral administration in mice. Type of data set: in vivo. The following applies: single oral 1000 mg/Kg, Mean ± SD. The gist of the method: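 Fasted ICR mice (19-21 g, three females and three males per group) received a single oral dose of 1000 mg/Kg, given first to one mouse of each sex and then to the remaining four. Behaviour, nervous and autonomic signs, and deaths were recorded over 0-15 min. Animals were then observed for 7 days with daily body weight.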

Data set [3] deals with DNBS-Induced Inflammatory Bowel Disease Models in Rats. The experiment in a line: Biological Example 3: DNBS-induced inflammatory bowel disease models in rats. Type of data set: in vivo, Wistar rats. As to conditions: 30 mg/Kg i.g. qd × 7; for Body weight: Mean ± SD. The protocol:
102 male Wistar rats were fasted for 40 hours. A 5% glucose injection (10 mL/Kg) was administered subcutaneously during fasting. 72 rats with normal conditions and moderate body weight were selected from the fasting rats. The animals were randomly divided into 9 groups according to the body weight (see Table 9. Grouped Table).
The animals were anesthetized with ether after 40 hours fasting. A specially made gavage device was slowly inserted into the enteric cavity at 8 cm from the anus. The model control group and each test group were administered with 0.5 mL of 50 mg/mL DNBS in 30% ethanol solution. The normal control group was administered with 0.5 mL of 30% ethanol solution. The animals were inverted in anesthesia for 15 minutes. The day when the model was prepared was day 0 of the experiment. After 4 hours of DNBS induction, the corresponding drug or the corresponding volume of 1% CMC-Na was administered once per day. On day 7 of the experiment, the animals were euthanized to score the colon adhesion degree, measure the length of colon and ulcer area, weigh colon and calculate the colon weight to length ratio.
One-way ANOVA analysis of the length of colon and colon weight per length of rats was performed by SPSS22. Statistical analyses between groups were performed. The adhesion degree was scored. Mann-Whitney U non-parametric test was performed on ulcer area. Statistical analyses between groups were performed.
Calculation Formula of Inhibitory rate of weight increase per length: (Colon weight to length ratio in model group−Colon weight to length ratio in administration group)/(Colon weight to length ratio in model group−Colon weight to length ratio in blank group)

Marks after values point to notes of the source that are not given here.

Regarding `COCCCN1C(=O)CCC(N2C(=O)c3cccc(N)c3C2=O)C1=O` (stereo not shown) [Example 26, 4-amino-2-(1-(3-methoxypropyl)-2,6-dioxopiperidin-3-yl)isoindolin-1,3-dione], the “Adhesion Degree” value in data set [1] (30 mg/Kg i.g. qd × 6) turned out to be 0.3 ± 0.5 Points. Moreover, the “Colon Length” value in data set [1] (30 mg/Kg i.g. qd × 6) is 13.7 ± 1.4 cm. Besides, the “Colon Weight” value in data set [1] (30 mg/Kg i.g. qd × 6) was determined as 1628.3 ± 185.5 mg. In data set [1] (30 mg/Kg i.g. qd × 6), the “Ulcer Area” value is on record as 1.1 ± 0.9## cm^2. Moreover, the “therapeutic effects on the model (in words)” value in data set [1] (30 mg/kg i.g. qd × 6) was “good therapeutic effects”. In addition, the “growth rate of the body weight (in words)” value in data set [1] (fourth day of the experiment, compared with model control group, doses as in Table 7) is on record as “higher than that in the model control group”. Besides, the “Daily Body Weight” value in data set [2] (Female mice, Day 1) is 18.0 ± 0.7 g; in data set [2] (Female mice, Day 2), 21.9 ± 0.3 g; in data set [2] (Female mice, Day 3) it was 22.1 ± 0.5 g; in data set [2] (Female mice, Day 4) it was 22.4 ± 0.2 g; in data set [2] (Female mice, Day 5), 22.7 ± 0.3 g; in data set [2] (Female mice, Day 6), 22.6 ± 0.3 g. In addition, the “Daily Body Weight” value in data set [2] (Female mice, Day 7) came to 22.4 ± 0.2 g; in data set [2] (Male mice, Day 1) it was 18.7 ± 0.8 g; in data set [2] (Male mice, Day 2) it was 23.4 ± 0.5 g; in data set [2] (Male mice, Day 3) it was 25.0 ± 0.6 g; in data set [2] (Male mice, Day 4), 26.6 ± 1.4 g; in data set [2] (Male mice, Day 5) it was 27.3 ± 1.3 g. Also, the “Daily Body Weight” value is 28.3 ± 1.3 g in data set [2] (Male mice, Day 6) and 28.8 ± 1.4 g in data set [2] (Male mice, Day 7).

As for `C[C@@H]1C[C@H]2[C@@H]3CCC4=CC(=O)C=C[C@]4(C)[C@@]3(F)[C@@H](O)C[C@]2(C)[C@@]1(O)C(=O)CO` [Dexamethasone, dexamethasone, reference compound], in data set [1] (0.1 mg/Kg i.g. qd × 6), the “Adhesion Degree” value was found to be 0.3 ± 0.5 Points, the “Colon Length” value is 14.2 ± 0.9 cm, the “Colon Weight” value is recorded as 1496.0 ± 450.0 mg and the “Ulcer Area” value was 1.4 ± 1.5# cm^2.

As for `Nc1cccc2c1C(=O)N(C1CCC(=O)N(CCO)C1=O)C2=O` (stereo not shown) [Example 6, 4-amino-2-(1-(2-hydroxyethyl)-2,6-dioxopiperidin-3-yl)isoindolin-1,3-dione], the “Adhesion Degree of Colon” value in data set [3] (day 7) is given as 0.6 ± 0.5 point. In addition, in data set [3] (day 7), the “Colon weight to length ratio” value is recorded as 99 ± 21 mg/cm. Also, the “Inhibitory rate of colon adhesion” value in data set [3] (day 7) is recorded as 64.7# %. Further, the “Inhibitory rate of ulcer area of colon” value in data set [3] (day 7) was 89.0# %. In data set [3] (day 7), the “Inhibitory rate of weight increase per length” value is on record as 70.9## %. In addition, the “Ulcer area of colon” value in data set [3] (day 7) was 0.34 ± 0.54# cm^2. Further, the Body weight is 137.5 ± 5.6 g in data set [3] (Day 0); 138.1 ± 8.0 g in data set [3] (Day 1); 141.8 ± 13.1 g in data set [3] (Day 2); 147.4 ± 16.5 g in data set [3] (Day 3); 154.5 ± 17.7 g in data set [3] (Day 4); 164.2 ± 16.2 g in data set [3] (Day 5). In addition, the Body weight in data set [3] (Day 6) is 169.3 ± 18.4 g; in data set [3] (Day 7), 180.9 ± 15.5 g. The “Daily Body Weight” value in data set [2] (Female mice, Day 1) is 17.5 ± 0.9 g; in data set [2] (Female mice, Day 2) it was 21.5 ± 0.9 g; in data set [2] (Female mice, Day 3) it was 21.6 ± 1.3 g; in data set [2] (Female mice, Day 4) it was 22.0 ± 1.2 g; in data set [2] (Female mice, Day 5) it was 22.3 ± 1.9 g; in data set [2] (Female mice, Day 6), 22.4 ± 2.3 g. Moreover, the “Daily Body Weight” value in data set [2] (Female mice, Day 7) is on record as 22.9 ± 2.0 g; in data set [2] (Male mice, Day 1) it was 18.4 ± 0.6 g; in data set [2] (Male mice, Day 2), 21.5 ± 0.9 g; in data set [2] (Male mice, Day 3), 21.6 ± 1.3 g; in data set [2] (Male mice, Day 4) it was 25.5 ± 0.5 g; in data set [2] (Male mice, Day 5) it was 25.9 ± 0.9 g. Also, the “Daily Body Weight” value in data set [2] (Male mice, Day 6) is listed as 26.9 ± 1.1 g; in data set [2] (Male mice, Day 7), 27.1 ± 1.1 g.
